Source: patent US12098352B2, “Stem cell-based lung-on-chip models” (EMULATE, INC., priority 2018, dated 2024)

What was measured:
platelets = test: Blood perfusion of LPS pretreated Alveolar-chip vascular channel; format: cell-based, human; conditions: LPS pretreated (inflamed) chip
Description: For further validation on the functionality of the endothelial compartment, the vascular compartment comprising an endothelial cell lining, was exposed to blood under flow. In one embodiment, an LPS pretreated microfluidic Alveolar-chip was perfused with blood, i.e. blood was flowed through the spiral channel. In one embodiment, a sample of human blood, e.g. 5 ml of whole blood isolated the same day from a healthy person (e.g. in citrate or heparin anticoagulation compounds) was perfused through the bottom spiraled channel with Ca2+ and Mg2+ to counteract the anticoagulation compounds, at 30 ml/hour. […] Left, schematic diagrams of the upper channels blue and ports blue dots, and spiral lower vascular endothelial channel red and ports red dots. […] Larger pink areas represent aggregation of platelets and adhered platelets are observed at the lower sharp bend.

[1] = test system: cellular monolayer barrier; test: Barrier function in static transwell; format: cell-based; conditions: doses up to 100 ng/ml LPS, 10 mM H2O2
[2] = test system: Alveolus-Chip epithelium/endothelium barrier; test: Barrier function assay (fluorescent dextran / Lucifer Yellow leakage) in Open-Top Alveolus-Chip; format: cell-based, human
Excerpt: We studied interaction between different chip compartments by perturbating the system with biological and chemical stressors such as LPS, and H2O2 which are known to induce a reversible disruption of the cellular monolayer after acute administration both in vivo and in vitro. […] The presence of a strong barrier is indirectly confirmed by the presence of continuous pattern of E-cad and VE-cad in the monolayer of Alveolar epithelial and endothelial cell, respectively.
Given the limited availability of in vitro models that can closely mimic human alveolar epithelium function and/or its disease states, we explored whether a microfluidic Alveolus-Chip lined with the primary alveolar epithelial cells on an artificial lung stroma with embedded primary lung fibroblasts and pulmonary microvascular endothelial cells would model a lung injury state. To test this, we exposed the Alveolus-Chips to an acute damage generated by exposure to H2O2 under continuous infusion through the epithelium top channel, similarly to as it is […] administered in mice.
Air-Liquid interface was replaced by phenol red free MEM (GIBCO: 51200-038) and medium in the bottom fluidical spiraled channel substituted by one containing 1 mg/ml Lucifer Yellow CH, Lithium Salt (ThermoFisher: L453) or 0.1 mg/ml Dextran, Fluorescein, 3000 MW, Anionic, Lysine Fixable (ThermoFisher: D3306). Leakage of the fluorescent probe from the lumen of the spiraled channel to the epithelial compartment was collected from the outlet reservoirs after indicated hours of perfusion. The fluorescence intensity was measured with a 96-well fluorimeter at excitation/emission indicated by the manufacturer.

For Lipopolysaccharide [LPS], the “platelet response on blood perfusion” value (platelets) was “platelet adhesion and aggregation”, the “loss of barrier function” value [1] was “dose dependent loss of barrier function” and the “effect of stressor on barrier function” value ([2]; LPS 10 ng/ml and/or H2O2 10 mM) was “causes barrier breakdown and disruption of intracellular junction”. The “reversibility of barrier breakdown after removal of stressor” value ([2]; additional 2 days in fresh medium) was “barrier breakdown in our chip was reversable”.
